According to ChEMBL document CHEMBL1201862, “PubChem BioAssay data set” (2004):
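In this assay, cells in 96-well plates receive the compound at five concentrations for 48 hours. Endpoints are linearly interpolated between the surrounding concentrations. The concentration for 50% growth inhibition is given as GI50.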 Calls of active or inactive are those of the source. Rule as the data show it: active = GI50 up to about 1.1 µM and inactive = higher.

Legend:
Assay in all cases: DTP human tumour cell line panel, 48 h
A549 = tested on: A549
M14 = tested on: M14
786-0 = tested on: 786-0
NCI-H23 = tested on: NCI-H23
HCT-15 = tested on: HCT-15
HCC 2998 = tested on: HCC 2998
MCF7 = tested on: MCF7
SNB-19 = tested on: SNB-19
HOP-92 = tested on: HOP-92
OVCAR-3 = tested on: OVCAR-3
SW-620 = tested on: SW-620
UACC-62 = tested on: UACC-62
HL-60 = tested on: HL-60
HT-29 = tested on: HT-29
UACC-257 = tested on: UACC-257
LOX IMVI = tested on: LOX IMVI
MDA-MB-231 = tested on: MDA-MB-231
OVCAR-8 = tested on: OVCAR-8
HCT-116 = tested on: HCT-116
OVCAR-5 = tested on: OVCAR-5

SMILES | GI50 (A549) | GI50 (M14) | GI50 (786-0) | GI50 (NCI-H23) | GI50 (HCT-15) [µM] | GI50 (HCC 2998) | GI50 (MCF7) | GI50 (SNB-19) | GI50 (HOP-92) | GI50 (OVCAR-3) | GI50 (SW-620) | GI50 (UACC-62) | GI50 (HL-60) | GI50 (HT-29) | GI50 (UACC-257) | GI50 (LOX IMVI) | GI50 (MDA-MB-231) | GI50 (OVCAR-8) | GI50 (HCT-116) | GI50 (OVCAR-5)
O=C(O)c1ccc(C(=O)c2ccccc2C(=O)O)cc1C(=O)O | > 100 µM (inactive) | > 100 µM (inactive) | > 100 µM (inactive) | > 100 µM (inactive) | > 100 | > 100 µM (inactive) | > 100 µM (inactive) | > 100 µM (inactive) | > 100 µM (inactive) | > 100 µM (inactive) | > 100 µM (inactive) | > 100 µM (inactive) | > 76.9 µM (inactive) | > 100 µM (inactive) | > 100 µM (inactive) | > 100 µM (inactive) | > 100 µM (inactive) | > 100 µM (inactive) | > 100 µM (inactive) | > 100 µM (inactive)
Oc1cccc2c(Br)ccnc12 | 4.34 µM (inactive) | 1.98 µM (inactive) | 17.1 µM (inactive) | 3.94 µM (inactive) | 2.27 | 14.7 µM (inactive) | 4.43 µM (inactive) | 7.71 µM (inactive) | 5.71 µM (inactive) | 0.697 µM (active) | 3.51 µM (inactive) | 1.47 µM (inactive) | 0.181 µM (active) | 5.4 µM (inactive) | 2.48 µM (inactive) | 0.713 µM (active) | 2.75 µM (inactive) | 1.22 µM (inactive) | 1.4 µM (inactive) | 6.08 µM (inactive)
COP(=O)(OC)C1=c2c(C)noc2=C2C=COC2C1=O (stereo not given) | > 100 µM (inactive) | > 100 µM (inactive) | > 100 µM (inactive) | > 100 µM (inactive) | > 100 | > 100 µM (inactive) | > 100 µM (inactive) | > 100 µM (inactive) | 63.4 µM (inactive) | > 100 µM (inactive) | > 100 µM (inactive) | > 100 µM (inactive) | > 100 µM (inactive) | > 100 µM (inactive) | > 100 µM (inactive) | > 100 µM (inactive) | 56.1 µM (inactive) | > 100 µM (inactive) | > 100 µM (inactive) | > 100 µM (inactive)
COc1ccc2c(c1)CCc1[nH]c3ccccc3c1CCCC2 | > 10 µM (inactive) | > 10 µM (inactive) | > 10 µM (inactive) | > 10 µM (inactive) | > 10 | > 10 µM (inactive) | > 10 µM (inactive) | > 10 µM (inactive) | > 10 µM (inactive) | > 10 µM (inactive) | > 10 µM (inactive) | > 10 µM (inactive) | > 10 µM (inactive) | > 10 µM (inactive) | > 10 µM (inactive) | > 10 µM (inactive) | > 10 µM (inactive) | > 10 µM (inactive) | > 10 µM (inactive) | > 10 µM (inactive)
NS(=O)(=O)c1ccc(NC(=O)c2ccc3nc4ccccc4c(Nc4ccc(S(N)(=O)=O)cc4)c3c2)cc1 | > 100 µM (inactive) | > 100 µM (inactive) | > 100 µM (inactive) | > 100 µM (inactive) | > 100 | > 100 µM (inactive) | > 100 µM (inactive) | 42.1 µM (inactive) | > 100 µM (inactive) | > 100 µM (inactive) | > 100 µM (inactive) | > 100 µM (inactive) | > 100 µM (inactive) | > 100 µM (inactive) | > 100 µM (inactive) | > 100 µM (inactive) | > 100 µM (inactive) | > 100 µM (inactive) | > 100 µM (inactive) | > 100 µM (inactive)
Cc1ccc(S(=O)(=O)Nc2nc3ccccc3c(=O)n2C2CCCCC2)cc1 | > 100 µM (inactive) | > 100 µM (inactive) | > 100 µM (inactive) | > 100 µM (inactive) | > 100 | > 100 µM (inactive) | > 100 µM (inactive) | > 100 µM (inactive) | 67.5 µM (inactive) | 76.7 µM (inactive) | > 100 µM (inactive) | 77.4 µM (inactive) | 57.9 µM (inactive) | > 100 µM (inactive) | > 100 µM (inactive) | > 100 µM (inactive) | 78.3 µM (inactive) | > 100 µM (inactive) | > 100 µM (inactive) | > 100 µM (inactive)
CC1C(c2ccccc2)NC(c2ccccc2)CC1(N)C#N (stereo not given) | > 100 µM (inactive) | 38.8 µM (inactive) | > 100 µM (inactive) | > 100 µM (inactive) | > 100 | > 100 µM (inactive) | > 100 µM (inactive) | > 100 µM (inactive) | 95.1 µM (inactive) | > 100 µM (inactive) | > 100 µM (inactive) | 90.6 µM (inactive) | > 100 µM (inactive) | 63.1 µM (inactive) | 48 µM (inactive) | > 100 µM (inactive) | > 100 µM (inactive) | > 100 µM (inactive) | > 100 µM (inactive) | > 100 µM (inactive)
C[C@H]1CC[C@H]([C@@H](C)[C@H]2[C@@H](O)C[C@H]3[C@@H]4CC[C@H]5C[C@@H](O)CC[C@]5(C)[C@H]4CC[C@]23C)NC1 | 17 µM (inactive) | 24.2 µM (inactive) | 18.9 µM (inactive) | 15.5 µM (inactive) | 17 | 18.6 µM (inactive) | 21.9 µM (inactive) | 23.5 µM (inactive) | 14.5 µM (inactive) | 18.7 µM (inactive) | 18.7 µM (inactive) | 14.6 µM (inactive) | 4.45 µM (inactive) | 18.1 µM (inactive) | 18.4 µM (inactive) | 19.2 µM (inactive) | 21.2 µM (inactive) | 15 µM (inactive) | 15.6 µM (inactive) | 19.3 µM (inactive)
C=C1CC2[C@H](C)C(=O)CCC2(C)C2=C1C1CCC(C(C)CCC(=C)C(C)C(=O)O)C1(C)CC2=O (stereo not given in full) | 66.7 µM (inactive) | > 100 µM (inactive) | 20.4 µM (inactive) | 41.9 µM (inactive) | 40.5 | 47 µM (inactive) | 83.9 µM (inactive) | 69.5 µM (inactive) | 29.7 µM (inactive) | 30.5 µM (inactive) | 61.7 µM (inactive) | 51.8 µM (inactive) | 15.2 µM (inactive) | 62.1 µM (inactive) | 29.2 µM (inactive) | 17.9 µM (inactive) | > 100 µM (inactive) | 75.7 µM (inactive) | 32.5 µM (inactive) | > 100 µM (inactive)
COc1ccc(NC2=NCCO2)c2c1CCCC2 | 40.7 µM (inactive) | 29.2 µM (inactive) | 93.5 µM (inactive) | 25.5 µM (inactive) | 31.6 | 31.9 µM (inactive) | 27.4 µM (inactive) | 39.4 µM (inactive) | 19.8 µM (inactive) | 29.1 µM (inactive) | 47.4 µM (inactive) | 24.4 µM (inactive) | 15.5 µM (inactive) | 46.8 µM (inactive) | 26.3 µM (inactive) | 29.1 µM (inactive) | 43.8 µM (inactive) | 36.7 µM (inactive) | 28.8 µM (inactive) | 64.9 µM (inactive)
NC1=CN(Cc2ccccc2)C2=N/C(=C\c3ccccc3O)C(=O)N12 | > 100 µM (inactive) | > 100 µM (inactive) | > 100 µM (inactive) | > 100 µM (inactive) | > 100 | > 100 µM (inactive) | > 100 µM (inactive) | > 100 µM (inactive) | > 100 µM (inactive) | > 100 µM (inactive) | > 100 µM (inactive) | > 100 µM (inactive) | > 100 µM (inactive) | > 100 µM (inactive) | > 100 µM (inactive) | > 100 µM (inactive) | > 100 µM (inactive) | > 100 µM (inactive) | > 100 µM (inactive) | > 100 µM (inactive)
CN(C)[C@@H]1C(O)=C(C(=O)NCNc2nc3[nH]nnc3c(=O)[nH]2)C(=O)[C@@]2(O)C(O)=C3C(=O)c4c(O)cccc4[C@@](C)(O)[C@H]3C[C@@H]12 | 55.3 µM (inactive) | 0.557 µM (active) | 0.637 µM (active) | 35.3 µM (inactive) | 42.5 | 64 µM (inactive) | 66.1 µM (inactive) | 86.1 µM (inactive) | 1.3 µM (inactive) | 25.9 µM (inactive) | 0.471 µM (active) | 0.346 µM (active) | 0.231 µM (active) | 43.7 µM (inactive) | 1.28 µM (inactive) | 0.679 µM (active) | 0.883 µM (active) | 0.817 µM (active) | 1.21 µM (inactive) | 33.5 µM (inactive)
CC(C)=CCC/C(=C\CC/C(=C\CCc1ccoc1)C(=O)O)C(=O)O | > 100 µM (inactive) | > 100 µM (inactive) | > 100 µM (inactive) | > 100 µM (inactive) | > 100 | > 100 µM (inactive) | > 100 µM (inactive) | > 100 µM (inactive) | > 100 µM (inactive) | > 100 µM (inactive) | > 100 µM (inactive) | > 100 µM (inactive) | 11.7 µM (inactive) | > 100 µM (inactive) | > 100 µM (inactive) | > 100 µM (inactive) | > 100 µM (inactive) | > 100 µM (inactive) | > 100 µM (inactive) | > 100 µM (inactive)
COc1cc(OC)c(-c2oc3ccccc3c(=O)c2O)c(OC)c1 | 4.9 µM (inactive) | 2.55 µM (inactive) | 13.4 µM (inactive) | 17.3 µM (inactive) | 2.99 | 0.586 µM (active) | 6.25 µM (inactive) | > 57.1 µM (inactive) | 8.17 µM (inactive) | 2.63 µM (inactive) | 3.62 µM (inactive) | 2.69 µM (inactive) | 2.43 µM (inactive) | 3.08 µM (inactive) | > 91.6 µM (inactive) | 5.98 µM (inactive) | > 20.7 µM (inactive) | 10.4 µM (inactive) | 3.76 µM (inactive) | > 100 µM (inactive)
